Laboratory results taken from patent US3966719A, “4-(Tetrazol-5-yl)-Δ^3 -cephem compounds” (Pfizer Inc., priority 1974, dated 1976).
Values after ≈ are worked out from the molar mass of the structure shown.

Test system: Streptomyces pyogenes
Experiment: antimicrobial test in nutrient broth, minimum concentration (MIC) at which growth failed to occur
Format: cell-based
Details: standardized conditions, read-out: In vitro MIC

| SMILES | MIC [µg/mL] |
| --- | --- |
| CC1=C(c2nn[nH]n2)N2C(=O)C(NC(=O)Cn3cnnn3)C2SC1 (centres unmarked) | 6.2 (≈ 17.8 µM) |
| Cn1nnnc1SCC1=C(c2nn[nH]n2)N2C(=O)C(NC(=O)Cc3cccs3)C2SC1 (centres unmarked) | 0.1 (≈ 0.21 µM) |
| Cn1nnnc1SCC1=C(c2nn[nH]n2)N2C(=O)C(NC(=O)[C@H](O)c3ccccc3)C2SC1 (stereo partly drawn) [7-D-(α-Hydroxy-α-phenylacetamido)-3-(1-methyltetrazol-5-ylthiomethyl)-4-(tetrazol-5-yl)-Δ^3-cephem] | 3.12 (≈ 6.41 µM) |
| CC1=C(c2nn[nH]n2)N2C(=O)C(NC(=O)Cc3ccccc3)C2SC1 (centres unmarked) [C6H5CH2--, A = H, 7-Phenylacetamido-3-methyl-4-(tetrazol-5-yl)-Δ^3-cephem] | 0.78 (≈ 2.19 µM) |
| CC1=C(c2nn[nH]n2)N2C(=O)C(NC(=O)C(N=[N+]=[N-])c3ccccc3)C2SC1 (centres unmarked) [C6H5CH(N3)--, A = H] | 1.5 (≈ 3.77 µM) |
| CC1=C(c2nn[nH]n2)N2C(=O)C(NC(=O)COc3ccccc3)C2SC1 (centres unmarked) [C6H5OCH2--, A = H, 7-Phenoxyacetamido-3-methyl-4-(tetrazol-5-yl)-Δ^3-cephem] | 3.1 (≈ 8.32 µM) |
| CC1=C(c2nn[nH]n2)N2C(=O)C(NC(=O)[C@H](N)c3ccc(O)cc3)C2SC1 (stereo partly drawn) [D--4-HOC6H4CH(NH2)--, A = H, 7-[D-α-Amino-α-(p-hydroxyphenyl)acetamido]-3-methyl-4-(tetrazol-5-yl)-Δ^3-cephem] | 1.5 (≈ 3.87 µM) |
| CC1=C(c2nn[nH]n2)N2C(=O)C(NC(=O)[C@H](O)c3ccccc3)C2SC1 (stereo partly drawn) [D--C6H5CH(OH)--, A = H, 7-(D-α-Hydroxyphenylacetamido)-3-methyl-4-(tetrazol-5-yl)-Δ^3-cephem] | 1.5 (≈ 4.03 µM) |
| CC1=C(c2nn[nH]n2)N2C(=O)C(NC(=O)CSc3nnc(C)s3)C2SC1 (centres unmarked) [R1 not printed, A = H] | 0.78 (≈ 1.9 µM) |
| CC1=C(c2nn[nH]n2)N2C(=O)C(NC(=O)Cc3cccs3)C2SC1 (centres unmarked) [R1 not printed, A = H] | 0.4 (≈ 1.1 µM) |
| CC(=O)OCC1=C(c2nn[nH]n2)N2C(=O)C(NC(=O)Cc3cccs3)C2SC1 (centres unmarked) [R1 not printed, A = OCOCH3] | 1.6 (≈ 3.81 µM) |
